Patent US20230067847A1, “COMBINATION OF BERBERINE AND DERIVATIVES THEREOF, AND VITAMIN B12” (NANJING NUTRABUILDING BIO-TECH CO., LTD., priority 2021, published 2023)

What was measured:
[1] = system: high-fat diet (HFD) mice; test: Fasting blood glucose in HFD mice during 3 months of supplementation; assay type: in vivo; conditions: after three months (12th week), gavage once daily, FIG. 1a
Method: (§1) The high-fat diet (HFD, containing 60% fat by energy) mice at 8 weeks of age were divided into three groups: (1) non-supplement group (Con, n=5); (2) DHB supplement group (DHB, 100 mg/kg, n=5); […] VB12=100 mg/kg: 200 mg/kg, n=5). All mice were administered these things before each major meal for once daily (2 g/kg body weight) by gavage in normal saline solution for 3 months. Blood samples were collected from tail tips in a fasting state to measure serum VB 12, serum homocysteine, glucose, and serum holo-transcobalamin II (holo-TCII, a biologically active fraction for TCII receptors synthesis) and weighed the mice for 0th, 2th, 4th, 6th, 8th, 10th and 12th week. After 3 months of supplementation, glycated hemoglobin (HbA1c) was measured. Also, the insulin tolerance test was performed after 3 months of supplementation after subcutaneous injection of insulin (0.4 U/kg, 0.05 ml/10 g body weight) for 0, 30, 90 minutes. […] Elevated homocysteine was defined as > 15 µM/L. Vitamin B12 levels and holo-TCII were measured by using immunoassay analyzer to confirm the improvement in TCII receptors synthesis and VB12 levels. Serum homocysteine levels were measured using the chemiluminescent microparticle immunoassay to show the VB12 levels. HbA1c was determined with automated glycohemoglobin analyzer, which can indicate the effect of blood glucose control during the trial. […]

[2] = system: high-fat diet (HFD) mice; test: Serum VB12 level in HFD mice (immunoassay analyzer); conditions: mouse, in vivo
Method: The high-fat diet (HFD, containing 60% fat by energy) mice at 8 weeks of age were divided into three groups: (1) non-supplement group (Con, n=5); (2) DHB supplement group (DHB, 100 mg/kg, n=5); (3) the combination of DHB and VB12 supplement group (DHB+VB12, DHB: VB12=100 mg/kg: 200 mg/kg, n=5). All mice were administered these things before each major meal for once daily (2 g/kg body weight) by gavage in normal saline solution for 3 months.
Blood samples were collected from tail tips in a fasting state to measure serum VB 12, serum homocysteine, glucose, and serum holo-transcobalamin II (holo-TCII, a biologically active fraction for TCII receptors synthesis) and weighed the mice for 0th, 2th, 4th, 6th, 8th, 10th and 12th week. After 3 months of supplementation, glycated hemoglobin (HbA1c) was measured. […] Elevated homocysteine was defined as > 15 µM/L. Vitamin B12 levels and holo-TCII were measured by using immunoassay analyzer to confirm the improvement in TCII receptors synthesis and VB12 levels. Serum homocysteine levels were measured using the chemiluminescent microparticle immunoassay to show the VB12 levels. HbA1c was determined with automated glycohemoglobin analyzer, which can indicate the effect of blood glucose control during the trial. […]

[3] = system: high-fat diet (HFD) mice; test: Insulin tolerance test in HFD mice after 3 months of supplementation; assay type: in vivo; conditions: 90 minutes after subcutaneous insulin 0.4 U/kg, FIG. 1d
Method: as §1

[4] = system: high-fat diet (HFD) mice; test: Glycated hemoglobin (HbA1c) in HFD mice after 3 months of supplementation; assay type: in vivo; conditions: after three months of supplementation, FIG. 1e
Method: as §1

- serum total VB12 change [2]: significantly decreased
SMILES: COc1ccc2c(c1OC)CN1CCc3cc4c(cc3C1=C2)OCO4 [DHB, dihydroberberine]
- blood glucose level decreased compared to the control group [1]: about 35%
- blood glucose level lower than control group in insulin tolerance test [3]: about 15%
- HbA1c level decreased compared to the control group [4]: about 20%
